Test results published in PubChem BioAssay AID1918941 (Molecular Pharmacology Branch, DTP, NCI, 2023).

Test system: SW 1271 complex spheroids, viability
Assay: Anticancer human tumor SW 1271 cell line growth inhibition [LSD1];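 also: spheroids exposed to agents for 7 days before luminescence read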;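 as to viability, T/C: 100% = DMSO vehicle control viability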
Details: for IC50: curve of first compound; for viability, T/C: stronger effect = lower value
Summary of the method: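 Complex spheroids of tumor cells with HUVEC and human MSCs, exposed to iadademstat combined with other agents. Each agent tested in half-log steps from near clinical Cmax (else 10 microM top), DMSO ≤0.25%.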

[1] = second compound 0.1 µM, first compound 0.00949 µM
[2] = second compound 0.1 µM, first compound 0.03 µM
[3] = second compound 0.1 µM, first compound 0.0949 µM
[4] = second compound 0.1 µM, first compound 0.3 µM
[5] = second compound 0.1 µM, first compound 0.949 µM
[6] = second compound 0.1 µM, first compound 3 µM
[7] = second compound 0.316 µM, first compound 0.00949 µM
[8] = second compound 0.316 µM, first compound 0.03 µM
[9] = second compound 0.316 µM, first compound 0.0949 µM
[10] = second compound 0.316 µM, first compound 0.3 µM
[11] = second compound 0.316 µM, first compound 0.949 µM
[12] = second compound 0.316 µM, first compound 3 µM
[13] = second compound 1 µM, first compound 0.00949 µM
[14] = second compound 1 µM, first compound 0.03 µM
[15] = second compound 1 µM, first compound 0.0949 µM
[16] = second compound 1 µM, first compound 0.3 µM
[17] = second compound 1 µM, first compound 0.949 µM
[18] = second compound 1 µM, first compound 3 µM
[19] = second compound 3.16 µM, first compound 0.00949 µM
[20] = second compound 3.16 µM, first compound 0.03 µM
[21] = second compound 3.16 µM, first compound 0.0949 µM
[22] = second compound 3.16 µM, first compound 0.3 µM
[23] = second compound 3.16 µM, first compound 0.949 µM
[24] = second compound 3.16 µM, first compound 3 µM
[25] = second compound 10 µM, first compound 0.00949 µM
[26] = second compound 10 µM, first compound 0.03 µM
[27] = second compound 10 µM, first compound 0.0949 µM
[28] = second compound 10 µM, first compound 0.3 µM
[29] = second compound 10 µM, first compound 0.949 µM
[30] = second compound 10 µM, first compound 3 µM

## Cn1ncnc1C1c2n[nH]c(=O)c3cc(F)cc(c23)NC1c1ccc(F)cc1 (stereo not given) + NC1CCC(NC2CC2c2ccccc2)CC1
Second compound 0.1 µM
  IC50: > 100 nM
Second compound 0.316 µM
  IC50: > 100 nM
Second compound 1 µM
  IC50: > 100 nM
Second compound 3.16 µM
  IC50: > 100 nM
Second compound 10 µM
  IC50: > 100 nM
Second compound 0.1 µM, first compound 0.000316 µM
  viability, T/C: 93%
Second compound 0.1 µM, first compound 0.001 µM
  viability, T/C: 104%
Second compound 0.1 µM, first compound 0.00316 µM
  viability, T/C: 88.4%
Second compound 0.1 µM, first compound 0.01 µM
  viability, T/C: 94.9%
Second compound 0.1 µM, first compound 0.0316 µM
  viability, T/C: 88.6%
Second compound 0.1 µM, first compound 0.1 µM
  viability, T/C: 90.4%
Second compound 0.316 µM, first compound 0.000316 µM
  viability, T/C: 86.9%
Second compound 0.316 µM, first compound 0.001 µM
  viability, T/C: 98.3%
Second compound 0.316 µM, first compound 0.00316 µM
  viability, T/C: 103%
Second compound 0.316 µM, first compound 0.01 µM
  viability, T/C: 91.8%
Second compound 0.316 µM, first compound 0.0316 µM
  viability, T/C: 82.8%
Second compound 0.316 µM, first compound 0.1 µM
  viability, T/C: 86.8%
Second compound 1 µM, first compound 0.000316 µM
  viability, T/C: 91.7%
Second compound 1 µM, first compound 0.001 µM
  viability, T/C: 90.9%
Second compound 1 µM, first compound 0.00316 µM
  viability, T/C: 83.5%
Second compound 1 µM, first compound 0.01 µM
  viability, T/C: 84.3%
Second compound 1 µM, first compound 0.0316 µM
  viability, T/C: 85%
Second compound 1 µM, first compound 0.1 µM
  viability, T/C: 83%
Second compound 3.16 µM, first compound 0.000316 µM
  viability, T/C: 83.4%
Second compound 3.16 µM, first compound 0.001 µM
  viability, T/C: 87.7%
Second compound 3.16 µM, first compound 0.00316 µM
  viability, T/C: 79.9%
Second compound 3.16 µM, first compound 0.01 µM
  viability, T/C: 98.1%
Second compound 3.16 µM, first compound 0.0316 µM
  viability, T/C: 76.5%
Second compound 3.16 µM, first compound 0.1 µM
  viability, T/C: 93.2%
Second compound 10 µM, first compound 0.000316 µM
  viability, T/C: 98.6%
Second compound 10 µM, first compound 0.001 µM
  viability, T/C: 86.7%
Second compound 10 µM, first compound 0.00316 µM
  viability, T/C: 83.5%
Second compound 10 µM, first compound 0.01 µM
  viability, T/C: 88.1%
Second compound 10 µM, first compound 0.0316 µM
  viability, T/C: 85.3%
Second compound 10 µM, first compound 0.1 µM
  viability, T/C: 81.7%

## NS(=O)(=O)OCC1CC(n2ccc3c(NC4CCc5ccccc54)ncnc32)CC1O (stereo not given) + NC1CCC(NC2CC2c2ccccc2)CC1
Second compound 0.1 µM
  IC50: > 3000 nM
Second compound 0.316 µM
  IC50: > 3000 nM
Second compound 1 µM
  IC50: > 3000 nM
Second compound 3.16 µM
  IC50: > 3000 nM
Second compound 10 µM
  IC50: > 3000 nM
[1]
  viability, T/C: 149%
[2]
  viability, T/C: 125%
[3]
  viability, T/C: 77.5%
[4]
  viability, T/C: 84.7%
[5]
  viability, T/C: 79.6%
[6]
  viability, T/C: 74.8%
[7]
  viability, T/C: 162%
[8]
  viability, T/C: 131%
[9]
  viability, T/C: 87.7%
[10]
  viability, T/C: 73.6%
[11]
  viability, T/C: 77.5%
[12]
  viability, T/C: 77.8%
[13]
  viability, T/C: 164%
[14]
  viability, T/C: 115%
[15]
  viability, T/C: 82.4%
[16]
  viability, T/C: 66.5%
[17]
  viability, T/C: 80.7%
[18]
  viability, T/C: 75.5%
[19]
  viability, T/C: 132%
[20]
  viability, T/C: 113%
[21]
  viability, T/C: 93.8%
[22]
  viability, T/C: 75.2%
[23]
  viability, T/C: 69.8%
[24]
  viability, T/C: 70.1%
[25]
  viability, T/C: 163%
[26]
  viability, T/C: 124%
[27]
  viability, T/C: 86.5%
[28]
  viability, T/C: 73.9%
[29]
  viability, T/C: 73.9%
[30]
  viability, T/C: 70.2%

## O=C(C=Cc1cccc(S(=O)(=O)Nc2ccccc2)c1)NO + NC1CCC(NC2CC2c2ccccc2)CC1
Second compound 0.1 µM
  IC50: 167 nM
Second compound 0.316 µM
  IC50: 122 nM
Second compound 1 µM
  IC50: 88.5 nM
Second compound 3.16 µM
  IC50: 606 nM
Second compound 10 µM
  IC50: 84.7 nM
[1]
  viability, T/C: 72.1%
[2]
  viability, T/C: 72.1%
[3]
  viability, T/C: 57.9%
[4]
  viability, T/C: 22.7%
[5]
  viability, T/C: 6.87%
[6]
  viability, T/C: 96%
[7]
  viability, T/C: 88.8%
[8]
  viability, T/C: 69.8%
[9]
  viability, T/C: 61.9%
[10]
  viability, T/C: 18.5%
[11]
  viability, T/C: 7.13%
[12]
  viability, T/C: 97.9%
[13]
  viability, T/C: 78.8%
[14]
  viability, T/C: 68.8%
[15]
  viability, T/C: 52.4%
[16]
  viability, T/C: 19.1%
[17]
  viability, T/C: 8.74%
[18]
  viability, T/C: 102%
[19]
  viability, T/C: 88.6%
[20]
  viability, T/C: 72.9%
[21]
  viability, T/C: 56.1%
[22]
  viability, T/C: 26.4%
[23]
  viability, T/C: 6.99%
[24]
  viability, T/C: 108%
[25]
  viability, T/C: 85.3%
[26]
  viability, T/C: 75.7%
[27]
  viability, T/C: 48.8%
[28]
  viability, T/C: 22.1%
[29]
  viability, T/C: 7.93%
[30]
  viability, T/C: 98.2%
